Publication PMC12427341, “Phytochemical-Mediated Modulation of Doramectin Pharmacology in Sheep: Exploring the Cinnamaldehyde–Pink Grapefruit Combination” (Animals : an Open Access Journal from MDPI, 2025)
One block for each compound: values may come before it.

Experiments:
[1] = system: gastrointestinal nematodes; conditions: cited from earlier work; for Efficacy of single phytochemicals: sheep, low to moderate efficacy
C. elegans = system: C. elegans; parameters: method as in doi:10.1155/2020/1740938; conditions: in vitro exposure; cited from earlier work
P-glycoprotein [2] = assay: in vitro; conditions: Corriedale and Texel crossbreed, sheep
Protocol: (§1) A series of ex vivo experiments were performed to evaluate the interaction of DRM, CNM–PGF, or LPM with ABC transporters. […] For this assay, sheep ileum samples were obtained from a local slaughterhouse (Ayacucho, Argentina). […] The incubation process was started immediately after obtaining the tissue. During the preparation and assembly process, intestinal tissue was always maintained between 0–4 °C. The tissue was then mounted vertically in a diffusion chamber with an internal surface area of 0.8 cm^2. […] Both the mucosal (M) and serosal (S) sides were filled with 7 and 5 mL of prewarmed and oxygenated Krebs buffer, respectively. […] During preparation, chambers were preincubated to slough off any dead cells, and during this period, the tissue were exposed in the donor side to the presence or absence of 5 µM of DRM; 1.5 mM of CNM–PGF; or 50 µM of LPM, a well-established P-gp modulator, which was used as a positive control [25, 26]. After a 20 min equilibration period, Krebs buffer was completely replaced with fresh medium fortified with 0.5 µM of Rho123 as a substrate to the M or S side of the chambers for measuring the absorption and secretion processes, respectively. Thus, Rho123 was incubated alone (control assays) or in the presence of DRM, CNM–PGF, or LPM. Tissues were incubated for 4 h, and each hour, aliquots of 1 mL were collected from the receptor side and replaced with fresh Krebs buffer.
(§2) Samples from the receptor side (1 mL) were mixed with 2 mL of distillated water to reach a final volume of 3 mL.
(§3) Values of unidirectional transepithelial effective permeability (Peff) (cm.s^−1) were calculated for each chamber according to the following equation: Peff=dC/dT1/A.C0
(§4) The appearance rate on the receiving compartment is dC/dT, calculated from the slope of the concentration versus time curve over a time period of 4 h (Rho123); A is the exposed area (cm^2) of the tissue in the Ussing chamber (0.8 cm^2), and C0 is the initial drug concentration (ng/mL) in the donor compartment. The efflux ratio (ER) was calculated as follows: ER=mean Peff S−M/mean Peff M−S
(§5) The intestinal absorption is represented by permeability in the M–S direction. The S–M side can also be used to measure permeability, in this case characterizes intestinal secretion. A higher Peff S–M compared to the Peff M–S is indicative of carrier-mediated transport.

P-glycoprotein [3] = assay: Ex vivo intestinal transport of rhodamine 123 across sheep ileum (diffusion chamber model); conditions: 0.5 µM Rho123 alone (control), 4 h
Protocol: as §1, §2, §3, §4, §5

Compound: C=C(C)[C@H]1CC=C(C)CC1 [Limonene, limonene]
- FECR ([1]; long-term administration through feed, coadministered with a single dose of ivermectin, adult nematode number unaffected): 82%
- Survival rate of C. elegans (C. elegans): 30%

- efflux ratio at 4 h, 0.5 µM (P-glycoprotein [2]): 10.3
- Rho123 absorption, Peff M–S (P-glycoprotein [3]): 1.39 ± 0.343 ×10⁻⁶ cm/s
- Rho123 secretion, Peff S–M (P-glycoprotein [3]): 11.1 ± 3.64 ×10⁻⁶ cm/s
Compound: COC(=O)c1ccccc1-c1c2ccc(=N)cc-2oc2cc(N)ccc12 [Rho123, rhodamine 123]

Compound: C=C(C)C1CC=C(C)C(=O)C1 (stereo not shown) [carvone]
- Efficacy of single phytochemicals [1]: 0–47%

Compound: Cc1ccc(C(C)C)c(O)c1 [thymol]
- Efficacy of single phytochemicals [1]: 0–47%
